{"source": "patent US9803021B2", "about": "(The Regents of the University of California, priority 2012, dated 2017)", "key": {"[1]": {"tested_on": "Daudi cells", "assay": "MTS cell viability assay", "type": "cell-based, human", "conditions": "72 h / 3 day incubation", "experimental": "(§1) Percent cell viability was determined using MTS solution (Promega, Madison, Wis.) by measuring absorbance at 490 nm using a Synergy HT Multi-Detection Microplate Reader (BioTek Instruments, Inc., Winooski, Vt.) with untreated cells being 100%. GraphPad Prism (GraphPad Software Inc., La Jolla, Calif.) was used to analyze data by non-linear regression with the log (inhibitor) vs. the response with a variable slope with the IC50 calculated. Data are expressed as a percentage of maximum metabolic activity. The experiments were performed in triplicate.\n(§2) Metabolic activity was determined using MTS solution (Promega) by measuring absorbance at 490 nm using a Synergy HT Multi-Detection Microplate Reader (BioTek Instruments Inc.) with untreated cells being 100%. GraphPad Prism (GraphPad Software Inc.) was used to analyze data by non-linear regression with the log (inhibitor) versus the response with a variable slope. Data are expressed as a percentage of maximum metabolic activity. The experiments were performed in triplicate."}, "[2]": {"tested_on": "primary myeloma cells from patients", "assay": "Treatment of primary myeloma cells from patients (trypan blue / MTT)", "type": "cell-based, human", "experimental": "Trypan blue and MTT assays were used to determine the number of viable cells. The percentage of viable recovered cells was calculated based upon the number of viable cells recovered from DMSO-treated control cells, which was arbitrarily designated as 100%.\nPercent viable cell recovery was determined by trypan blue staining, with untreated control cells designated as 100%."}, "[3]": {"tested_on": "MM1-144", "assay": "Apoptosis assay (Annexin V / PI flow cytometry)", "type": "cell-based, human", "experimental": "(§3) Cells were analyzed by flow cytometry using FlowJo software.\n(§4) Cells were stained with Alexa Fluor 488-labeled Annexin V and propidium iodide (PI) using the Vybrant Apoptosis Kit #2 (Molecular Probes) as per manufacturer's instructions and analyzed by flow cytometry."}, "[4]": {"tested_on": "ANBL-6", "assay": "Apoptosis assay (Annexin V / PI flow cytometry)", "type": "cell-based, human", "experimental": "as §3, §4"}, "[5]": {"tested_on": "U266", "assay": "Apoptosis assay (Annexin V / PI flow cytometry)", "type": "cell-based, human", "experimental": "as §3, §4"}, "[6]": {"tested_on": "NCI-H929", "assay": "Apoptosis assay (Annexin V / PI flow cytometry)", "type": "cell-based, human", "experimental": "as §3, §4"}, "[7]": {"tested_on": "OCI-My5", "assay": "Apoptosis assay (Annexin V / PI flow cytometry)", "type": "cell-based, human", "conditions": "3 days; for induction of apoptosis, result in words: OCI-My5, 500 pM (also 1 nM)", "experimental": "as §3, §4"}, "[8]": {"tested_on": "8226/S", "assay": "Apoptosis assay (Annexin V / PI flow cytometry)", "type": "cell-based, human", "experimental": "as §3, §4"}, "[9]": {"tested_on": "MM1-144", "assay": "MTS assay (cell viability / metabolic activity)", "type": "cell-based, human", "conditions": "MM144 (MM1-144), 3 days", "experimental": "as §1, §2"}, "[10]": {"tested_on": "ANBL-6", "assay": "MTS assay (cell viability / metabolic activity)", "type": "cell-based, human", "conditions": "ANBL-6, 3 days or 7 days", "experimental": "as §1, §2"}, "[11]": {"tested_on": "U266", "assay": "MTS assay (cell viability / metabolic activity)", "type": "cell-based, human", "conditions": "U266, 3 days", "experimental": "as §1, §2"}, "[12]": {"tested_on": "OCI-My5", "assay": "MTS assay (cell viability / metabolic activity)", "type": "cell-based, human", "conditions": "OCI-My5, 3 days", "experimental": "as §1, §2"}, "[13]": {"tested_on": "8226/S", "assay": "MTS assay (cell viability / metabolic activity)", "type": "cell-based, human", "conditions": "8226/S (RPMI 8226), 3 days or 4 days", "experimental": "as §1, §2"}, "[14]": {"tested_on": "IRF-4 in U266", "assay": "Western blot of IRF-4", "type": "cell-based, human", "conditions": "U266, 1 nM, 2 days", "experimental": "(§5) Cells were lysed using RIPA buffer (50 mM Tris HCl pH 8, 150 mM NaCl, 1% NP-40, 0.5% sodium deoxycholate, 0.1% SDS) containing a protease inhibitor cocktail (Roche Applied Science, Indianapolis, Ind.). The cytosolic fractions were reduced with β-mercaptoethanol and separated by SDS-PAGE. Following transfer to nitrocellulose membrane (Whatman, Piscataway, N.J.) and blocking, samples were incubated with the following primary rabbit antibodies: anti-IRF4 (Epitomics, Berlingham, Calif.), anti-glyceraldehyde-3-phosphate dehydrogenase (GAPDH; Sigma), anti-ppRb Ser807/811 (Santa Cruz Biotechnology, Santa Cruz, Calif.), anti-cyclin D (Millipore, Billerica, Mass.), or anti-β tubulin (Abcam, Cambridge, Mass.). Secondary anti-rabbit IgG-HRP (GE Healthcare, Billerica, Mass.) was used and the blots were developed using enhanced chemiluminescence (ECL; Thermo Scientific, Waltham, Mass.).\nCells were lysed using RIPA buffer (50 mM Tris-HCl pH 8, 150 mM NaCl, 1% NP-40, 0.5% sodium deoxycholate, 0.1% SDS) containing a protease inhibitor cocktail (Roche Applied Science). The cytosolic fractions were reduced with β-mercaptoethanol and separated by SDS PAGE. […] Films were imaged using a Multilmage™ Light Cabinet (Alpha Innotech Corp.) and analyzed using NIH Image J. Bands were normalized to a GAPDH loading control and expressed as percentage band intensity of untreated cells."}, "[15]": {"tested_on": "OCI-My 5 tumors", "assay": "OCI-My5 xenograft model in SCID mice", "type": "in vivo, mouse", "conditions": "OCI-My5 s.c.", "excerpt": "Eight mice were included in each group.\nEach group consisted of eight mice."}, "[16]": {"tested_on": "ppRb in NCI-H929", "assay": "Western blot of ppRb", "type": "cell-based, human", "conditions": "NCI-H929, 1 nM, 48 hours", "experimental": "as §5\n(§6) Cells were lysed using RIPA buffer (50 mM Tris-HCl pH 8, 150 mM NaCl, 1% NP-40, 0.5% sodium deoxycholate, 0.1% SDS) containing a protease inhibitor cocktail (Roche Applied Science). The cytosolic fractions were reduced with β-mercaptoethanol and separated by SDS PAGE. Following transfer to nitrocellulose membrane (Whatman) and blocking, samples were incubated with the following primary rabbit antibodies: anti-IRF-4 (Epitomics), anti-glyceraldehyde-3-phosphate dehydrogenase (GAPDH; Sigma), or anti-ppRb Ser807/811 (Santa Cruz Biotechnology). Secondary anti-rabbit IgG-HRP (GE Healthcare) was used and the blots were developed using enhanced chemiluminescence (ECL; Thermo Scientific). Films were imaged using a Multilmage™ Light Cabinet (Alpha Innotech Corp.) and analyzed using NIH Image J. Bands were normalized to a GAPDH loading control and expressed as percentage band intensity of untreated cells."}, "[17]": {"tested_on": "ppRb in MM1-144", "assay": "Western blot of ppRb", "type": "cell-based, human", "conditions": "MM1-144, 1 nM, 48 hours", "experimental": "as §5, §6"}, "[18]": {"tested_on": "ppRb in OCI-My5", "assay": "Western blot of ppRb", "type": "cell-based, human", "conditions": "OCI-My5, 1 nM, 48 hours", "experimental": "as §5, §6"}}, "note": "“Also recorded” adds a separate entry of the source.", "data": [{"substance": "anti-CD138-IFNα: Fusion protein: murine B-B4 anti-CD138 variable regions, human IgG1κ constant regions, human IFNα2 fused to the antibody C-terminus via SGGGGS linker", "values": [{"measurement": "cell viability (MTS assay), result in words", "setting": "[1]", "value": "just as effective as recombinant IFNα"}, {"measurement": "viability of primary myeloma cells, result in words", "setting": "[2]; 25 nM, 72 h", "value": "little effect"}, {"measurement": "viability of primary myeloma cells, result in words", "setting": "[2]; 100 nM, 72 hours", "value": "significantly reduce cell viability"}, {"measurement": "induction of apoptosis at low concentration, result in words", "setting": "[3]; MM1-144, 1 pM, 3 days", "value": "did not cause apoptosis"}, {"measurement": "Mode of Action of anti-CD138-IFNα fusion", "setting": "[3]; MM144", "value": "Apoptosis"}, {"measurement": "induction of apoptosis, result in words", "setting": "[3]; MM144 (MM1-144), 500 pM, 3 days", "value": "caused apoptosis"}, {"measurement": "Mode of Action of anti-CD138-IFNα fusion", "setting": "[4]; ANBL-6", "value": "Apoptosis"}, {"measurement": "induction of apoptosis at low concentration, result in words", "setting": "[4]; ANBL-6, 1 pM, 3 days", "value": "did not cause apoptosis"}, {"measurement": "induction of apoptosis, result in words", "setting": "[4]; ANBL-6, 500 pM, 3 days, listed as anti-CD138-IFNα2", "value": "caused apoptosis"}, {"measurement": "Mode of Action of anti-CD138-IFNα fusion", "setting": "[5]; U266", "value": "Apoptosis"}, {"measurement": "induction of apoptosis at low concentration, result in words", "setting": "[5]; U266, 1 pM, 3 days", "value": "able to induce apoptosis"}, {"measurement": "induction of apoptosis, result in words", "setting": "[5]; U266, 500 pM, 3 days, listed as anti-CD138-IFNα2", "value": "caused apoptosis"}, {"measurement": "Mode of Action of anti-CD138-IFNα fusion", "setting": "[6]; H929", "value": "Apoptosis"}, {"measurement": "induction of apoptosis, result in words", "setting": "[6]; H929 (NCI-H929), 500 pM, 3 days, listed as anti-CD138-IFNα2", "value": "caused apoptosis"}, {"measurement": "induction of apoptosis at low concentration, result in words", "setting": "[6]; NCI-H929, 1 pM, 3 days", "value": "did not cause apoptosis"}, {"measurement": "induction of apoptosis at low concentration, result in words", "setting": "[7]; OCI-My5, 5 pM", "value": "able to induce apoptosis"}, {"measurement": "induction of apoptosis, result in words", "setting": "[7]", "value": "did not induce apoptosis; also recorded: did not cause apoptosis or blocks to cell cycle progression"}, {"measurement": "induction of apoptosis, result in words", "setting": "[7]; listed as anti-CD138-IFNα2", "value": "caused apoptosis"}, {"measurement": "Mode of Action of anti-CD138-IFNα fusion", "setting": "[8]", "value": "Apoptosis"}, {"measurement": "cell viability / growth inhibition (MTS assay), result in words", "setting": "[9]", "value": "more effective than untargeted anti-CD20-IFNα; also recorded: more effective at decreasing cell viability than IFNα alone"}, {"measurement": "cell viability / growth inhibition (MTS assay), result in words", "setting": "[9]; listed as Anti-CD138-IFNα2", "value": "more effective than recombinant IFNα2"}, {"measurement": "cell viability / growth inhibition (MTS assay), result in words", "setting": "[10]", "value": "more effective than untargeted anti-CD20-IFNα; also recorded: more effective at decreasing cell viability than IFNα alone"}, {"measurement": "cell viability / growth inhibition (MTS assay), result in words", "setting": "[10]; listed as Anti-CD138-IFNα", "value": "more effective than anti-CD138-mutIFNα"}, {"measurement": "cell viability / growth inhibition (MTS assay), result in words", "setting": "[10]; listed as Anti-CD138-IFNα2", "value": "more effective than recombinant IFNα2"}, {"measurement": "cell viability / growth inhibition (MTS assay), result in words", "setting": "[11]", "value": "more effective than untargeted anti-CD20-IFNα; also recorded: more effective at decreasing cell viability than IFNα alone"}, {"measurement": "cell viability / growth inhibition (MTS assay), result in words", "setting": "[12]", "value": "more effective than untargeted anti-CD20-IFNα; also recorded: more effective at decreasing cell viability than IFNα alone"}, {"measurement": "cell viability / growth inhibition (MTS assay), result in words", "setting": "[12]; listed as Anti-CD138-IFNα2", "value": "more effective than recombinant IFNα2"}, {"measurement": "cell viability / growth inhibition (MTS assay), result in words", "setting": "[13]", "value": "intermediate effect; also recorded: more effective at decreasing cell viability than IFNα alone"}, {"measurement": "cell viability / growth inhibition (MTS assay), result in words", "setting": "[13]; listed as Anti-CD138-IFNα2", "value": "some effect was observed only at high concentrations"}, {"measurement": "IRF-4 expression (Western blot)", "setting": "[14]", "value": "decrease was similar"}, {"measurement": "survival / protection, result in words", "setting": "[15]; 100 μg i.v. on days 14, 16, 18", "value": "significant increase in survival"}, {"measurement": "survival / protection, result in words", "setting": "[15]; 100 μg i.v. on days 14, 16, 18, listed as anti-CD138-IFNα2", "value": "greater protection"}, {"measurement": "ppRb levels (Western blot)", "setting": "[16]", "value": "decreased"}, {"measurement": "ppRb levels (Western blot)", "setting": "[17]", "value": "decreased"}, {"measurement": "ppRb levels (Western blot)", "setting": "[18]", "value": "decreased"}]}]}
